Test results taken from ChEMBL document CHEMBL5576038, “Design of a novel long-acting dual GLP-1/GIP receptor agonist” (Bioorg Med Chem, 2024).
Where a SMILES comes first, the peptide text is derived from it. [ ]: non-standard residue; d: D form. The star is where a group is joined. X1 = N[C@@H](CCCCNC(=O)CC[C@H](NC(=O)CCCCCCCCCCCCCCCCCCC(=O)O)C(=O)O)C(=O)NCCCC[C@H](N)C(=O)N[C@@H](CCCCNC(=O)C*)C(=O)O; X7 = O=C(O)CCCCCCCCCCCCCCCCCCC(=O)NCCOCCOCC(=O)N[C@@H](CCC(=O)N[C@H](CCC(=O)N[C@H](CCCCNC(=O)C*)C(=O)O)C(=O)O)C(=O)O; X5 = O=C(O)CCCCCCCCCCCCCCCCCCC(=O)N[C@@H](CCC(=O)NCCOCCOCC(=O)NCCOCCOCC(=O)N[C@@H](CCCCNC(=O)C*)C(=O)O)C(=O)O; X8 = O=C(O)CCCCCCCCCCCCCCCCC(=O)N[C@@H](CCC(=O)NCCOCCOCC(=O)NCCOCCOCC(=O)N[C@@H](CCCCNC(=O)C*)C(=O)O)C(=O)O; Aib = CC(C)(N)C(=O)O

Columns and labels:
[1] = biological target: Glucagon-like peptide 1 receptor (Homo sapiens, UniProt P43220); assay: Agonist activity at human GLP-1R expressed in CHO cells assessed as increase in cAMP production incubated for 30 mins by Eu-cAMP tracer based microplate reader analysis; assay type: functional, cell-based
[2] = biological target: T1, Gastric inhibitory polypeptide receptor (Homo sapiens, UniProt P48546); assay: Agonist activity at human GIPR expressed in CHO cells assessed as increase in cAMP production incubated for 30 mins by Eu-cAMP tracer based microplate reader analysis; assay type: functional, cell-based
T1 sequence (P48546 whole entry): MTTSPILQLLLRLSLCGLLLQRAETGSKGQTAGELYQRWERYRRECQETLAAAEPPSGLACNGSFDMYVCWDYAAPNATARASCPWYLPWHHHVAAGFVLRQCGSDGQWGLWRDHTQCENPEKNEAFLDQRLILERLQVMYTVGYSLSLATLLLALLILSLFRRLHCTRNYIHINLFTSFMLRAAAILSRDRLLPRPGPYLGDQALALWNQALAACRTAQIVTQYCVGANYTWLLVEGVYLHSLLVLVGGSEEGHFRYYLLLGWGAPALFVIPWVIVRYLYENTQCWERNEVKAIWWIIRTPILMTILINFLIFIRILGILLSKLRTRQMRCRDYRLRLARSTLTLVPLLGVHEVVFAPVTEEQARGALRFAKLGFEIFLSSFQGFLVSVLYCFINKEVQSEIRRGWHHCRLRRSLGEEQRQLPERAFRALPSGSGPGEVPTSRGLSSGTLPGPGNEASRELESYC

Glucagon-like peptide 1 receptor, sequence (P43220 whole entry): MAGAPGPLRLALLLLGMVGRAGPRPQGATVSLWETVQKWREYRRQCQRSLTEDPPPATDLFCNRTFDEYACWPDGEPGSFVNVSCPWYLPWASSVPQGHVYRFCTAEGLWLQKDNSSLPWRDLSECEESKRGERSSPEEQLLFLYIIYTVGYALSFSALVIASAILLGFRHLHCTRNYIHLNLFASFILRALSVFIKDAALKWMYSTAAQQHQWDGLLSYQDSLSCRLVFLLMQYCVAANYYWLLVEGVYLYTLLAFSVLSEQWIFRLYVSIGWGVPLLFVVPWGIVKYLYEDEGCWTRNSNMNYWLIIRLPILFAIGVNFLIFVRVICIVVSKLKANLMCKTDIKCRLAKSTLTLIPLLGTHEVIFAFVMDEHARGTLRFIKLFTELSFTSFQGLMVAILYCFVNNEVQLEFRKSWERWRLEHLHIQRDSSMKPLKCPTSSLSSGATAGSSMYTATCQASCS

SMILES | EC50 [1] | EC50 [2] | EC50 ([1]; cho) | EC50 ([2]; cho)
CC(C)C[C@H](NC(=O)[C@H](CC(C)C)NC(=O)[C@H](Cc1c[nH]c2ccccc12)NC(=O)[C@H](CCC(N)=O)NC(=O)[C@@H](NC(=O)[C@H](Cc1ccccc1)NC(=O)[C@H](CC(C)C)NC(=O)[C@H](CCCCN)NC(=O)[C@H](C)NC(=O)[C@H](C)NC(=O)[C@H](CCC(N)=O)NC(=O)[C@H](CCCCN)NC(=O)[C@H](CCC(=O)O)NC(=O)[C@H](CC(C)C)NC(=O)[C@H](CSCC(=O)NCCCC[C@H](NC(=O)[C@@H](N)CCCCNC(=O)[C@@H](N)CCCCNC(=O)CC[C@H](NC(=O)CCCCCCCCCCCCCCCCCCC(=O)O)C(=O)O)C(=O)O)NC(=O)[C@H](Cc1ccc(O)cc1)NC(=O)[C@H](CO)NC(=O)[C@H](Cc1ccc(O)cc1)NC(=O)[C@H](CC(=O)O)NC(=O)[C@H](CO)NC(=O)[C@@H](NC(=O)[C@H](Cc1ccccc1)NC(=O)[C@@H](NC(=O)CNC(=O)[C@H](CCC(=O)O)NC(=O)C(C)(C)NC(=O)[C@@H](N)Cc1ccc(O)cc1)[C@@H](C)O)[C@@H](C)O)C(C)C)C(=O)N[C@@H](C)C(=O)NCC(=O)NCC(=O)N1CCC[C@H]1C(=O)N[C@@H](CO)C(=O)N[C@@H](CO)C(=O)NCC(=O)N[C@@H](C)C(=O)N1CCC[C@H]1C(=O)N1CCC[C@H]1C(=O)N1CCC[C@H]1C(=O)N[C@@H](CO)C(N)=O (H-Y[Aib]EGTFTSDYSYC(X1)LEKQAAKLFVQWLLAGGPSSGAPPPS-NH2) | 0.46 nM | 0.14 nM |  | 
CC(C)C[C@H](NC(=O)[C@H](CC(C)C)NC(=O)[C@H](Cc1c[nH]c2ccccc12)NC(=O)[C@H](CCC(N)=O)NC(=O)[C@@H](NC(=O)[C@H](Cc1ccccc1)NC(=O)[C@H](CC(C)C)NC(=O)[C@H](CCCCN)NC(=O)[C@H](C)NC(=O)[C@H](C)NC(=O)[C@H](CCC(N)=O)NC(=O)[C@H](CCCCN)NC(=O)[C@H](CCC(=O)O)NC(=O)[C@H](CC(C)C)NC(=O)[C@H](CSCC(=O)NCCCC[C@H](NC(=O)COCCOCCNC(=O)COCCOCCNC(=O)CC[C@H](NC(=O)CCCCCCCCCCCCCCCCCCC(=O)O)C(=O)O)C(=O)O)NC(=O)[C@H](Cc1ccc(O)cc1)NC(=O)[C@H](CO)NC(=O)[C@H](Cc1ccc(O)cc1)NC(=O)[C@H](CC(=O)O)NC(=O)[C@H](CO)NC(=O)[C@@H](NC(=O)[C@H](Cc1ccccc1)NC(=O)[C@@H](NC(=O)CNC(=O)[C@H](CCC(=O)O)NC(=O)C(C)(C)NC(=O)[C@@H](N)Cc1ccc(O)cc1)[C@@H](C)O)[C@@H](C)O)C(C)C)C(=O)N[C@@H](C)C(=O)NCC(=O)NCC(=O)N1CCC[C@H]1C(=O)N[C@@H](CO)C(=O)N[C@@H](CO)C(=O)NCC(=O)N[C@@H](C)C(=O)N1CCC[C@H]1C(=O)N1CCC[C@H]1C(=O)N1CCC[C@H]1C(=O)N[C@@H](CO)C(N)=O (H-Y[Aib]EGTFTSDYSYC(X5)LEKQAAKLFVQWLLAGGPSSGAPPPS-NH2) | 1.34 nM | 0.42 nM |  | 
CC(C)C[C@H](NC(=O)[C@H](CC(C)C)NC(=O)[C@H](Cc1c[nH]c2ccccc12)NC(=O)[C@H](CCC(N)=O)NC(=O)[C@@H](NC(=O)[C@H](Cc1ccccc1)NC(=O)[C@H](CC(C)C)NC(=O)[C@H](CCCCN)NC(=O)[C@H](C)NC(=O)[C@H](C)NC(=O)[C@H](CCC(N)=O)NC(=O)[C@H](CCCCN)NC(=O)[C@H](CCC(=O)O)NC(=O)[C@H](CC(C)C)NC(=O)[C@H](CSCC(=O)NCCCC[C@H](NC(=O)COCCOCCNC(=O)COCCOCCNC(=O)CC[C@H](NC(=O)CCCCCCCCCCCCCCCCC(=O)O)C(=O)O)C(=O)O)NC(=O)[C@H](Cc1ccc(O)cc1)NC(=O)[C@H](CO)NC(=O)[C@H](Cc1ccc(O)cc1)NC(=O)[C@H](CC(=O)O)NC(=O)[C@H](CO)NC(=O)[C@@H](NC(=O)[C@H](Cc1ccccc1)NC(=O)[C@@H](NC(=O)CNC(=O)[C@H](CCC(=O)O)NC(=O)C(C)(C)NC(=O)[C@@H](N)Cc1ccc(O)cc1)[C@@H](C)O)[C@@H](C)O)C(C)C)C(=O)N[C@@H](C)C(=O)NCC(=O)NCC(=O)N1CCC[C@H]1C(=O)N[C@@H](CO)C(=O)N[C@@H](CO)C(=O)NCC(=O)N[C@@H](C)C(=O)N1CCC[C@H]1C(=O)N1CCC[C@H]1C(=O)N1CCC[C@H]1C(=O)N[C@@H](CO)C(N)=O (H-Y[Aib]EGTFTSDYSYC(X8)LEKQAAKLFVQWLLAGGPSSGAPPPS-NH2) | 1.75 nM | 1.31 nM |  | 
CC(C)C[C@H](NC(=O)[C@H](CC(C)C)NC(=O)[C@H](Cc1c[nH]c2ccccc12)NC(=O)[C@H](CCC(N)=O)NC(=O)[C@@H](NC(=O)[C@H](Cc1ccccc1)NC(=O)[C@H](CC(C)C)NC(=O)[C@H](CCCCN)NC(=O)[C@H](C)NC(=O)[C@H](C)NC(=O)[C@H](CCC(N)=O)NC(=O)[C@H](CCCCN)NC(=O)[C@H](CCC(=O)O)NC(=O)[C@H](CC(C)C)NC(=O)[C@H](CS)NC(=O)[C@H](Cc1ccc(O)cc1)NC(=O)[C@H](CO)NC(=O)[C@H](Cc1ccc(O)cc1)NC(=O)[C@H](CC(=O)O)NC(=O)[C@H](CO)NC(=O)[C@@H](NC(=O)[C@H](Cc1ccccc1)NC(=O)[C@@H](NC(=O)CNC(=O)[C@H](CCC(=O)O)NC(=O)C(C)(C)NC(=O)[C@@H](N)Cc1ccc(O)cc1)[C@@H](C)O)[C@@H](C)O)C(C)C)C(=O)N[C@@H](C)C(=O)NCC(=O)NCC(=O)N1CCC[C@H]1C(=O)N[C@@H](CO)C(=O)N[C@@H](CO)C(=O)NCC(=O)N[C@@H](C)C(=O)N1CCC[C@H]1C(=O)N1CCC[C@H]1C(=O)N1CCC[C@H]1C(=O)N[C@@H](CO)C(N)=O (H-Y[Aib]EGTFTSDYSYCLEKQAAKLFVQWLLAGGPSSGAPPPS-NH2) | 0.42 nM | 0.39 nM |  | 
CC(C)C[C@H](NC(=O)[C@H](CC(C)C)NC(=O)[C@H](Cc1c[nH]c2ccccc12)NC(=O)[C@H](CCC(N)=O)NC(=O)[C@@H](NC(=O)[C@H](Cc1ccccc1)NC(=O)[C@H](CC(C)C)NC(=O)[C@H](CCCCN)NC(=O)[C@H](C)NC(=O)[C@H](C)NC(=O)[C@H](CCC(N)=O)NC(=O)[C@H](CSCC(=O)NCCCC[C@@H](NC(=O)CC[C@@H](NC(=O)CC[C@H](NC(=O)COCCOCCNC(=O)CCCCCCCCCCCCCCCCCCC(=O)O)C(=O)O)C(=O)O)C(=O)O)NC(=O)[C@H](CCC(=O)O)NC(=O)[C@H](CC(C)C)NC(=O)[C@H](Cc1ccc(O)cc1)NC(=O)[C@H](Cc1ccc(O)cc1)NC(=O)[C@H](CO)NC(=O)[C@H](Cc1ccc(O)cc1)NC(=O)[C@H](CC(=O)O)NC(=O)[C@H](CO)NC(=O)[C@@H](NC(=O)[C@H](Cc1ccccc1)NC(=O)[C@@H](NC(=O)CNC(=O)[C@H](CCC(=O)O)NC(=O)C(C)(C)NC(=O)[C@@H](N)Cc1ccc(O)cc1)[C@@H](C)O)[C@@H](C)O)C(C)C)C(=O)N[C@@H](C)C(=O)NCC(=O)NCC(=O)N1CCC[C@H]1C(=O)N[C@@H](CO)C(=O)N[C@@H](CO)C(=O)NCC(=O)N[C@@H](C)C(=O)N1CCC[C@H]1C(=O)N1CCC[C@H]1C(=O)N1CCC[C@H]1C(=O)N[C@@H](CO)C(N)=O (H-Y[Aib]EGTFTSDYSYYLEC(X7)QAAKLFVQWLLAGGPSSGAPPPS-NH2) |  |  | 0.51 nM | 0.2 nM
CC(C)C[C@H](NC(=O)[C@H](CC(C)C)NC(=O)[C@H](Cc1c[nH]c2ccccc12)NC(=O)[C@H](CCC(N)=O)NC(=O)[C@@H](NC(=O)[C@H](Cc1ccccc1)NC(=O)[C@H](CC(C)C)NC(=O)[C@H](CCCCN)NC(=O)[C@H](C)NC(=O)[C@H](C)NC(=O)[C@H](CCC(N)=O)NC(=O)[C@H](CS)NC(=O)[C@H](CCC(=O)O)NC(=O)[C@H](CC(C)C)NC(=O)[C@H](Cc1ccc(O)cc1)NC(=O)[C@H](Cc1ccc(O)cc1)NC(=O)[C@H](CO)NC(=O)[C@H](Cc1ccc(O)cc1)NC(=O)[C@H](CC(=O)O)NC(=O)[C@H](CO)NC(=O)[C@@H](NC(=O)[C@H](Cc1ccccc1)NC(=O)[C@@H](NC(=O)CNC(=O)[C@H](CCC(=O)O)NC(=O)C(C)(C)NC(=O)[C@@H](N)Cc1ccc(O)cc1)[C@@H](C)O)[C@@H](C)O)C(C)C)C(=O)N[C@@H](C)C(=O)NCC(=O)NCC(=O)N1CCC[C@H]1C(=O)N[C@@H](CO)C(=O)N[C@@H](CO)C(=O)NCC(=O)N[C@@H](C)C(=O)N1CCC[C@H]1C(=O)N1CCC[C@H]1C(=O)N1CCC[C@H]1C(=O)N[C@@H](CO)C(N)=O (H-Y[Aib]EGTFTSDYSYYLECQAAKLFVQWLLAGGPSSGAPPPS-NH2) |  |  | 0.6 nM | 1.87 nM
CC(C)C[C@H](NC(=O)[C@H](CC(C)C)NC(=O)[C@H](Cc1c[nH]c2ccccc12)NC(=O)[C@H](CCC(N)=O)NC(=O)[C@@H](NC(=O)[C@H](Cc1ccccc1)NC(=O)[C@H](CC(C)C)NC(=O)[C@H](CSCC(=O)NCCCC[C@H](NC(=O)COCCOCCNC(=O)COCCOCCNC(=O)CC[C@H](NC(=O)CCCCCCCCCCCCCCCCCCC(=O)O)C(=O)O)C(=O)O)NC(=O)[C@H](C)NC(=O)[C@H](C)NC(=O)[C@H](CCC(N)=O)NC(=O)[C@H](CCCCN)NC(=O)[C@H](CCC(=O)O)NC(=O)[C@H](CC(C)C)NC(=O)[C@H](Cc1ccc(O)cc1)NC(=O)[C@H](Cc1ccc(O)cc1)NC(=O)[C@H](CO)NC(=O)[C@H](Cc1ccc(O)cc1)NC(=O)[C@H](CC(=O)O)NC(=O)[C@H](CO)NC(=O)[C@@H](NC(=O)[C@H](Cc1ccccc1)NC(=O)[C@@H](NC(=O)CNC(=O)[C@H](CCC(=O)O)NC(=O)C(C)(C)NC(=O)[C@@H](N)Cc1ccc(O)cc1)[C@@H](C)O)[C@@H](C)O)C(C)C)C(=O)N[C@@H](C)C(=O)NCC(=O)NCC(=O)N1CCC[C@H]1C(=O)N[C@@H](CO)C(=O)N[C@@H](CO)C(=O)NCC(=O)N[C@@H](C)C(=O)N1CCC[C@H]1C(=O)N1CCC[C@H]1C(=O)N1CCC[C@H]1C(=O)N[C@@H](CO)C(N)=O (H-Y[Aib]EGTFTSDYSYYLEKQAAC(X5)LFVQWLLAGGPSSGAPPPS-NH2) | 0.49 nM | 1.31 nM |  | 
